Here are results for 1 compound from patent publication US11684614B2, “Formulations of hydroxypyridonate actinide/lanthanide decorporation agents” (priority 2017, dated 2023).

A short description of data set [1]: Non-GLP 7-day repeat dose beagle dog study, safety findings (SRI No. B677-13). It is filed as in vivo, beagle dogs. From the text: Clinical observations that were associated with test article administration included post-dose diarrhea and emesis. Specifically, dogs in the mid- and high-dose groups experienced slight or extreme diarrhea on Day 1 between 1 and 6 hr post-dose. Diarrhea was absent from the lowdose group. […] By Day 2, 8 of the 9 affected dogs were normal, with the exception of one highdose group female that had continued slight diarrhea. Slight to moderate emesis occurred <2 hr post-dose (and oftentimes <1 hr post-dose) in 1-3 dogs from each of the 3,4,3-L1(1,2-HOPO) treatment groups and in none of the vehicle control-treated dogs. Post-dose emesis appeared to be dose-dependent since it occurred in 0, 1, 2, and 3 dogs out of 12 dogs per group in control, low, mid, and high dose groups, respectively. Post-dose emesis is a common response to oral dose administration in dogs, and a single occurrence of it in the low dose group could be […] rather than test article-related and is not considered a dose-limiting event. Slight post-dose emesis in this one male dog was the only finding present in the 37.5 mg/kg lowdose treatment group.
No similar renal histopathology findings were found in any of the other on-study dogs. The observation of hemosiderin without fibrosis in the kidney sections from this one dog is consistent with the renal findings having developed within one to three days prior to the Day 15 necropsy. This dog also had corresponding small increases (1.8- and 1.3-fold, respectively) in the renal function markers BUN and CR on Day 15 relative to pre-test. The timing of the renal findings in this recovery group dog is surprising given the fact that 3,4,3-L1(1,2-HOPO) was administered only on Day 1. Therefore, it is unclear if these renal findings are related specifically to high-dose administration of 3,4,3-L1(1,2-HOPO). There were no toxicologically meaningful histopathology findings in any of the dogs on Day 2 or in any of the other dogs on Day 15. Similar renal findings were also absent from the non-GLP 7-day repeat dose dog study (SRI No. B677-13) where 2 dogs/sex received formulated material at higher doses for 4 days followed by equivalent doses for 3 days and then were sacrificed on Day 8.
An evaluation of the serum levels of iron, unsaturated iron binding capacity, total iron binding capacity, magnesium, and ferritin were included in the clinical pathology analysis during the dog safety studies because 3,4,3-L1(1,2-HOPO) is a potent metal chelator.

Data set [2] has as its target CYP2C19 (Homo sapiens, UniProt P33261). Nature of the data set: CYP inhibition. It is filed as in vitro ADME.
The nature of data set [3]: In vitro human liver microsome stability. The format is in vitro ADME. On the technique in general: Microsomes from liver hold many membrane-bound enzymes, among them those of drug oxidation.
Data set [4] can be described thus: Double-Sink PAMPA permeability assay with permeation enhancers (flux ratio). The format is in vitro ADME. Particulars: compared with reference compound Ranitidine. As to the method: The objective of the analytical study described in Part C of this report was to assess the feasibility of enhancing the permeability of the active pharmaceutical ingredient 3,4,3-L1(1,2-HOPO) using oral permeation enhancers. Evaluation was performed using an in vitro pK assay based on the Double-Sink™ PAMPA technology developed by pION, Inc.
The permeability enhancement study was performed in two stages. In the first stage (TABLE 10.1), 15 formulations were prepared and screened. The second stage (TABLE 10.2) was performed to refine the concentrations of the permeability enhancers that seemed to display permeability enhancement in the first screening. The screening conditions for both stages are listed below. The sample solutions were stored throughout the study in 20 mL clear scintillation glass vials with polypropylene cap and pulp foil liner, wrapped in aluminum foil.
• Test Solutions: Vehicles containing the permeation enhancers were prepared by weighing the adequate quantity of enhancer and dissolving it into 100 mL of purified water to reach the designated concentration. Test solutions were then prepared by weighing 10 mg of 3,4,3-L1(1,2-HOPO), dissolving it into 10 mL of each of the vehicles to reach a concentration of 1 mg/mL (purified water was used for the control solution). The final pH and clarity of each solution were recorded. […]
A general note: PAMPA measures passive passage across an artificial lipid membrane.

The mark [5] stands for this setting: after treatment, 2 dogs/sex, no control group.

CYP2C19, sequence (P33261 whole entry): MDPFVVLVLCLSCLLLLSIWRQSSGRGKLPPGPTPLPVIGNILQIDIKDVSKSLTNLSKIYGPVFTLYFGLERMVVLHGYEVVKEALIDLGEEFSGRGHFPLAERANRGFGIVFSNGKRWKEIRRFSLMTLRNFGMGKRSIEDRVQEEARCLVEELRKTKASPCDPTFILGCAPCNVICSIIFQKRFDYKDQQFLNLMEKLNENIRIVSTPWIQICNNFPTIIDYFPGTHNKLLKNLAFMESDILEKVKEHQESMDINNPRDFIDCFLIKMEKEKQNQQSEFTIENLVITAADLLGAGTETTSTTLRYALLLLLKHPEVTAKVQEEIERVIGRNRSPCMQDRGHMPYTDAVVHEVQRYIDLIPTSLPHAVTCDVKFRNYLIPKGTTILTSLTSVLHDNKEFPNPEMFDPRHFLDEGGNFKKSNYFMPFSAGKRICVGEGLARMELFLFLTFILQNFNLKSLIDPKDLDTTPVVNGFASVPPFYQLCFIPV

In the case of `O=C(NCCCN(CCCCN(CCCNC(=O)c1cccc(=O)n1O)C(=O)c1cccc(=O)n1O)C(=O)c1cccc(=O)n1O)c1cccc(=O)n1O` [3,4,3-L1(1,2-HOPO)], in data set [1] (7-day repeat dose, sacrificed on Day 8), the renal findings entry is recorded as “absent”. In data set [1] (setting [5]), the “decrease in unsaturated iron binding capacity” value is 16-62% and the “increase in serum total iron levels compared with pretest” value was approximately 2 fold. In addition, the emesis and diarrhea entry in data set [1] (formulated capsules once daily for 7 days, 75.1, 150, or 300 mg/kg, ~1 hr post-dose) is “dose dependent, transient emesis and diarrhea”. Further, in data set [2], the “inhibition of CYP2C19 activity” value was “did not inhibit”. In addition, in data set [3], the “stability in human liver microsomes” value is reported as “relatively stable”. Also, the “permeability (PAMPA)” value in data set [4] is reported as “very low permeability”.
